Results published in US8664275B2, “Crystalline form of Bimatoprost, preparation method and use thereof” (Shanghai Techwell Biopharmaceutical Co., Ltd., priority 2009, dated 2014).

Assay: Comparison of stability: sealed storage at 40° C., HPLC purity
Format: physicochemical
Conditions: for degradation in stability test: sealed storage for 4 days at 40° C.
Source text: The crystalline form A of Bimatoprost of the invention has specific stability, which is favorable for storage. The inventors compare the stability of the crystalline form A prepared by the method of the invention with that of the crystalline form B prepared in the prior art by stability test. […] Degradation products of the crystalline form B include a compound II and a compound III. […] As used herein, the term “HPLC purity” refers to the percentage of peak area of the compound as shown in formula I that is subject to HPLC detection and then area normalization according to the obtained chromatogram in the total peak area. The HPLC detection method is as follows: Chromatographic column: 4.6×150 mm 3 μm C18 column; column temperature: 35° C.; mobile phase: A: acetonitrile: water (20 mM potassium phosphate buffer solution; pH=2.8) 20:80; B: acetonitrile: water (20 mM potassium phosphate buffer solution; pH=2.8) 40:60; gradient elution conditions: A:B=100: 0, 1 min; A:B=100:0-40:60, 16 min; A:B=40:60, 4 min; A:B=40:60-100:0, 1 min. Flow rate: 1 ml/min; main peak retention time: around […]; sample volume 15 μl; column temperature: 35° C.±5° C.; detection wavelength: 210 nm; running time: 40 min. A sample of the crystal A of Bimatoprost prepared by Example 4 was taken (0.8 g; HPLC purity: 99.7%) and divided into 4 parts of equal amount; and the 4 parts were respectively hermetically placed under 40° C. for 1 day, 2 days, 3 days and 4 days and then sampled for analysis, wherein HPLC purity was 99.7%, 99.7%, 99.7% and 99.7% respectively. A sample of the crystal B of Bimatoprost prepared by Example 2 was taken (0.8 g; HPLC purity: 99.6%) and divided into 4 parts of equal amount; and the 4 parts were respectively hermetically placed under 40° C. for 1 day, 2 days, 3 days and 4 days and then sampled for analysis, wherein HPLC purity was 99.4%, 99.2%, 99.1% and 98.7% respectively.

| HPLC purity (hermetically placed under 40° C. for 1 day, listed as crystal B of Bimatoprost) [%] | HPLC purity (hermetically placed under 40° C. for 2 days, listed as crystal B of Bimatoprost) [%] | HPLC purity (hermetically placed under 40° C. for 3 days, listed as crystal B of Bimatoprost) [%] | HPLC purity (hermetically placed under 40° C. for 4 days, listed as crystal B of Bimatoprost) [%] | HPLC purity (sample before storage (initial), listed as crystal B of Bimatoprost) [%] | degradation in stability test | HPLC purity (hermetically placed under 40° C. for 1 day, listed as crystal A of Bimatoprost) [%] | HPLC purity (hermetically placed under 40° C. for 2 days, listed as crystal A of Bimatoprost) [%] | HPLC purity (hermetically placed under 40° C. for 3 days, listed as crystal A of Bimatoprost) [%] | HPLC purity (hermetically placed under 40° C. for 4 days, listed as crystal A of Bimatoprost) [%] | HPLC purity (sample before storage (initial), listed as crystal A of Bimatoprost) [%] | Structure (SMILES) |
| --- | --- | --- | --- | --- | --- | --- | --- | --- | --- | --- | --- |
| 99.4 | 99.2 | 99.1 | 98.7 | 99.6 | obviously degrades |  |  |  |  |  | CCNC(=O)CCC/C=C\C[C@@H]1[C@@H](/C=C/[C@@H](O)CCc2ccccc2)[C@H](O)C[C@@H]1O [crystalline form B, (Z)-7-[(1R,2R,3R,5S)-3,5-dihydroxyl-2-[(E,3S)-3-hydroxyl-5-phenylpent-1-enyl]cyclopentyl]-N-ethylhept-5-eneamide] |
|  |  |  |  |  | does not degrade | 99.7 | 99.7 | 99.7 | 99.7 | 99.7 | CCNC(=O)CCC/C=C\C[C@@H]1[C@@H](/C=C/[C@@H](O)CCc2ccccc2)[C@H](O)C[C@@H]1O [crystalline form A, (Z)-7-[(1R,2R,3R,5S)-3,5-dihydroxyl-2-[(E,3S)-3-hydroxyl-5-phenylpent-1-enyl]cyclopentyl]-N-ethylhept-5-eneamide] |
